Data reported in patent US20010011063A1, “Substituted 2,4-diamino-1,3,5-triazines, processes for their preparation and their use as herbicides and plant growth regulators” (priority 1999, published 2001).

Columns and labels:
Format in all cases: in vivo
[1] = system: Stellaria media, Lolium multiflorum, Amaranthus retroflexus, Sinapis alba, Avena sativa and Settaria viridis; assay: Pre-emergence effect on weeds (greenhouse pot test); conditions: application rate of 1 kg or less of active substance per hectare; visually scored after 3 to 4 weeks by comparison with untreated controls
Source text: Seeds or rhizome pieces of mono and dicotyledonous weed plants are placed in sandy loam soil in plastic pots and covered with soil. The compounds according to the invention which are formulated in the form of wettable powders or emulsion concentrates are then applied to the soil cover in the form of aqueous suspensions or emulsions at an application rate of 600 to 800 l of water/ha (converted), in various dosages.

[2] = system: Sinapis alba, Echinochloa crus-galli, Lolium multiforum, Stellaria media, Cyperus iria, Amaranthus retroflexus, Settaria viridis and Avena sativa; assay: Post-emergence effect on weeds (greenhouse pot test); conditions: application rate of 1 kg or less of active substance per hectare; treated at the three-leaf stage; scored visually after about 3 to 4 weeks vs untreated controls
Experimental: Seeds or rhizome pieces of mono- and dicotyledonous weeds are placed in sandy loam soil in plastic pots, covered with soil and grown in a greenhouse under good growth conditions. Three weeks after sowing, the test plants are treated at the three-leaf stage. The compounds according to the invention, formulated as wettable powders or emulsion concentrates, are sprayed, at various dosages, onto the green parts of the plants at an application rate of 600 to 800 l of water/ha (converted). After the test plants had remained in the greenhouse for about 3 to 4 weeks under optimum growth conditions, the effect of the preparations is scored visually by comparison with untreated controls. The agents according to the invention also have good herbicidal activity post-emergence against a broad spectrum of economically important weed grasses and broad-leaved weeds.

[3] = system: Cyperus monti, Echinochloa crus-galli and Sagitaria pygmaea; assay: Action on harmful plants in rice (paddy rice conditions); conditions: poured into the dammed water, visual scoring about three weeks after application; note: test concentration or dose not given here
Source text: Transplanted and sown rice and also typical rice weeds (gramineous and broad-leaved) are cultivated in closed plastic pots in a greenhouse to the three-leaf stage (Echinochloa crus-galli 1.5-leaf) under paddy rice conditions (height of water: 2-3 cm). This is followed by treatment with the compounds according to the invention. For this purpose, the formulated active compounds are suspended, dissolved or emulsified in water and applied by pouring them into the dammed water around the test plants in different dosages.

CC(C)(F)c1nc(N)nc(NC(Cc2ccccc2)CC2CC2)n1 (stereo not drawn) [Example 5-2]
very good herbicidal activity: herbicidal activity pre-emergence against harmful plants [1] | herbicidal activity post-emergence against harmful plants [2] | herbicidal activity against harmful plants which are typical for rice crops [3]

CC(C)c1nc(N)nc(NC(Cc2ccccc2)CC2CC2)n1 (stereo not drawn) [Example 5-3]
very good herbicidal activity: herbicidal activity pre-emergence against harmful plants [1] | herbicidal activity post-emergence against harmful plants [2] | herbicidal activity against harmful plants which are typical for rice crops [3]

CC(C)c1nc(N)nc(NC(CCCCc2ccccc2)C2CC2)n1 (stereo not drawn) [Example 5-43]
very good herbicidal activity: herbicidal activity pre-emergence against harmful plants [1] | herbicidal activity post-emergence against harmful plants [2] | herbicidal activity against harmful plants which are typical for rice crops [3]

CC(C)(F)c1nc(N)nc(NC(CCCCc2ccccc2)C2CC2)n1 (stereo not drawn) [Example 5-44]
very good herbicidal activity: herbicidal activity pre-emergence against harmful plants [1] | herbicidal activity post-emergence against harmful plants [2] | herbicidal activity against harmful plants which are typical for rice crops [3]

CC(C)(F)c1nc(N)nc(NC(CCCCc2ccccc2)C2CCC2)n1 (stereo not drawn) [Example 5-47]
very good herbicidal activity: herbicidal activity pre-emergence against harmful plants [1] | herbicidal activity post-emergence against harmful plants [2] | herbicidal activity against harmful plants which are typical for rice crops [3]

CC(C)Cc1nc(N)nc(N[C@H](Cc2ccccc2)CC2CC2)n1 [Example 6-1]
very good herbicidal activity: herbicidal activity pre-emergence against harmful plants [1] | herbicidal activity post-emergence against harmful plants [2] | herbicidal activity against harmful plants which are typical for rice crops [3]

CC(C)(F)c1nc(N)nc(N[C@H](Cc2ccccc2)CC2CC2)n1 [Example 6-2]
very good herbicidal activity: herbicidal activity pre-emergence against harmful plants [1] | herbicidal activity post-emergence against harmful plants [2] | herbicidal activity against harmful plants which are typical for rice crops [3]

CC(C)c1nc(N)nc(N[C@H](Cc2ccccc2)CC2CC2)n1 [Example 6-3]
very good herbicidal activity: herbicidal activity pre-emergence against harmful plants [1] | herbicidal activity post-emergence against harmful plants [2] | herbicidal activity against harmful plants which are typical for rice crops [3]

CC(C)c1nc(N)nc(N[C@H](CCCCc2ccccc2)C2CC2)n1 [Example 6-43]
very good herbicidal activity: herbicidal activity pre-emergence against harmful plants [1] | herbicidal activity post-emergence against harmful plants [2] | herbicidal activity against harmful plants which are typical for rice crops [3]

CC(C)(F)c1nc(N)nc(N[C@H](CCCCc2ccccc2)C2CC2)n1 [Example 6-44]
very good herbicidal activity: herbicidal activity pre-emergence against harmful plants [1] | herbicidal activity post-emergence against harmful plants [2] | herbicidal activity against harmful plants which are typical for rice crops [3]

CC(C)(F)c1nc(N)nc(N[C@H](CCCCc2ccccc2)C2CCC2)n1 [Example 6-47]
very good herbicidal activity: herbicidal activity pre-emergence against harmful plants [1] | herbicidal activity post-emergence against harmful plants [2] | herbicidal activity against harmful plants which are typical for rice crops [3]
